Data taken from patent US20220054463A1, “METHODS OF TREATING ANEURYSMS” (University of Pittsburgh-of the Commonwealth System of …, priority 2020, published 2022).

What was measured:
[1] = tested on: murine intracranial aneurysms; assay: Mouse intracranial aneurysm model (aneurysm formation); assay type: in vivo, mouse (C57BL/6)
Source text: Mouse Intracranial Aneurysm Model. Murine intracranial aneurysms were created in female 8-12 week-old C57BL/6 mice (Charles River Laboratories, Wilmington, Mass.) using a method described previously (Hosaka et al., Journal of neurointerventional surgery. 2014; 6:474-9). Briefly, the left common carotid artery and the right renal artery were ligated to induce hypertension. One week later, an Alzet micro-osmotic pump model 1004 (DURECT Corp, Cupertino, Calif.) was implanted subdermally to deliver Angiotensin II (Bachem AG, Switzerland) at 1000 ng/kg/min. 10 μL of 0.8% porcine elastase (Worthington Biochemical Corp, Lakewood, N.J.) in normal saline was injected into the right basal cistern using stereotactic coordinates: 1.2 mm rostral of bregma, 0.7 mm lateral of midline and 5.3 mm ventral of the dorsal aspect of the skull. The animals were fed a hypertensive diet with 8% NaCl and 0.12% BAPN (TEKLAD). Clopidogrel was administered at 1 mg/kg in normal saline via intraperitoneal injection every two days. Reparixin was administered at 10 mg/kg in normal saline via intraperitoneal injection every two days. PBS-treated animals received 10 μL injection of phosphate buffered saline subcutaneously every two days. […] Each Circle of Willis was examined by a blinded observer and aneurysm formation was recorded (yes/no). […]

[2] = tested on: cytokines (inflammatory profile); assay: Cytokine arrays in aneurysm-induced cerebral vasculature; assay type: in vivo, mouse; conditions: aneurysmal mice, 2 versus 3 weeks; FIG. 5
Source text: Mouse Intracranial Aneurysm Model. Murine intracranial aneurysms were created in female 8-12 week-old C57BL/6 mice (Charles River Laboratories, Wilmington, Mass.) using a method described previously (Hosaka et al., Journal of neurointerventional surgery. 2014; 6:474-9). Briefly, the left common carotid artery and the right renal artery were ligated to induce hypertension. One week later, an Alzet micro-osmotic pump model 1004 (DURECT Corp, Cupertino, Calif.) was implanted subdermally to deliver Angiotensin II (Bachem AG, Switzerland) at 1000 ng/kg/min. 10 μL of 0.8% porcine elastase (Worthington Biochemical Corp, Lakewood, N.J.) in normal saline was injected into the right basal cistern using stereotactic coordinates: 1.2 mm rostral of bregma, 0.7 mm lateral of midline and 5.3 mm ventral of the dorsal aspect of the skull. The animals were fed a hypertensive diet with 8% NaCl and 0.12% BAPN (TEKLAD). Clopidogrel was administered at 1 mg/kg in normal saline via intraperitoneal injection every two days. Reparixin was administered at 10 mg/kg in normal saline via intraperitoneal injection every two days. PBS-treated animals received 10 μL injection of phosphate buffered saline subcutaneously every two days. […] In addition, cytokines were analyzed in human cerebral aneurysm, superficial temporal artery, and peripheral intravenous blood specimens that were collected at the time of surgery.

With `COC(=O)[C@H](c1ccccc1Cl)N1CCc2sccc2C1` [clopidogrel] the mice developing aneurysms ([1]; 1 mg/kg clopidogrel, controls 59%, p<0.001, FIG. 3A) was 0% and the “attenuation of inflammatory profile (temporal dynamics of 96 cytokines)” value [2] was “moderate response”.
For `CC(C)Cc1ccc([C@@H](C)C(=O)NS(C)(=O)=O)cc1` [reparixin], the mice developing aneurysms ([1]; 10 mg/kg reparixin, PBS:DMSO treated control mice 59%, p=0.0163, FIG. 3B) was 14% and the “attenuation of inflammatory profile (temporal dynamics of 96 cytokines)” value [2] was “robust anti-inflammatory effects”.
